How the values were obtained:
SNU-C1 = assay: cells; format: cell-based; conditions: for Basal_Viability ATP SNU-C1 IC50/EC50: assay number 30
HCT116 = assay: cells; format: cell-based; conditions: basal; for Basal_Viability ATP HCT116 IC50/EC50: assay number 25
[1] = tested on: nuclear β-catenin in C2C12 cells; assay: cells; format: cell-based; conditions: concentration response; for WntCondMedia_bCatenin C2C12 IC50/EC50: assay number 5
[2] = tested on: ECFC/ADSC co-culture cell nuclei number
hp70S6K1 (RPS6KB1) = molecular target: T1, hp70S6K1 (RPS6KB1) (Homo sapiens, UniProt P23443); assay: Cerep LANCE kinase assay hp70S6K1 (S1 assay 31); format: biochemical; conditions: for hp70S6K1 LANCE IC50/EC50: assay number 31
T1 construct: purchased Cerep (LANCE kinase assay platform, contract assay)

[3] = tested on: HCT116 cells treated with a GSK3β inhibitor; assay: cells; format: cell-based; conditions: assay number 26; GSK3b inhibitor pretreated
hKDR = molecular target: T2, hKDR (Homo sapiens, UniProt P35968); assay: Cerep LANCE kinase assay hKDR (S1 assay 32); format: biochemical; conditions: for hKDR LANCE IC50/EC50: assay number 32
T2 construct: purchased Cerep (LANCE kinase assay platform, contract assay)

[4] = tested on: alkaline phosphatase (ALP) activity in C2C12 cells; format: cell-based; conditions: concentration response; for WntCondMedia_Alk Phos C2C12 IC50/EC50: assay number 6
HT-29 = assay: cells; format: cell-based; conditions: for Basal_Viability ATP HT-29 IC50/EC50: assay number 28
[5] = tested on: endothelial tube formation in co-cultures of ECFCs and ADSCs treated with VEGF; assay: cells; format: cell-based, human
RKO = assay: cells; format: cell-based; conditions: for Basal_Viability ATP RKO IC50/EC50: assay number 29
hFLT3 = molecular target: T3, hFLT3 (Homo sapiens, UniProt P36888); assay: Cerep LANCE kinase assay hFLT3 (S1 assay 35); format: biochemical; conditions: for hFLT3 LANCE IC50/EC50: assay number 35
T3 construct: purchased Cerep (LANCE kinase assay platform, contract assay)

hGSK3b = molecular target: T4, hGSK3b (Homo sapiens, UniProt P49841); assay: Cerep LANCE kinase assay hGSK3b (S1 assay 34); format: biochemical; conditions: for hGSK3b LANCE IC50/EC50: assay number 34
T4 construct: purchased Cerep (LANCE kinase assay platform, contract assay)

HeLa cells = assay: cells; format: cell-based; conditions: for Hela CellCycMod PI 2N IC50/EC50: assay number 14; for Hela CellCycMod PI 4N IC50/EC50: assay number 16; for Hela CellCycMod PI MI IC50/EC50: assay number 17; for Hela CellCycMod PI Cell Number IC50/EC50: assay number 18; for Hela CellCycMod PI S Phase IC50/EC50: assay number 15
DLD-1 = assay: cells; format: cell-based; conditions: assay number 23
hJAK2 = molecular target: T5, hJAK2 (Homo sapiens, UniProt O60674); assay: Cerep LANCE kinase assay hJAK2 (S1 assay 33); format: biochemical; conditions: for hJAK2 LANCE IC50/EC50: assay number 33
T5 construct: purchased Cerep (LANCE kinase assay platform, contract assay)

SW480 = assay: cells; format: cell-based; conditions: basal
Colo320 = assay: cells; format: cell-based; conditions: for Basal_Viability ATP Colo 320 IC50/EC50: assay number 27

T2 sequence (P35968 20-1356): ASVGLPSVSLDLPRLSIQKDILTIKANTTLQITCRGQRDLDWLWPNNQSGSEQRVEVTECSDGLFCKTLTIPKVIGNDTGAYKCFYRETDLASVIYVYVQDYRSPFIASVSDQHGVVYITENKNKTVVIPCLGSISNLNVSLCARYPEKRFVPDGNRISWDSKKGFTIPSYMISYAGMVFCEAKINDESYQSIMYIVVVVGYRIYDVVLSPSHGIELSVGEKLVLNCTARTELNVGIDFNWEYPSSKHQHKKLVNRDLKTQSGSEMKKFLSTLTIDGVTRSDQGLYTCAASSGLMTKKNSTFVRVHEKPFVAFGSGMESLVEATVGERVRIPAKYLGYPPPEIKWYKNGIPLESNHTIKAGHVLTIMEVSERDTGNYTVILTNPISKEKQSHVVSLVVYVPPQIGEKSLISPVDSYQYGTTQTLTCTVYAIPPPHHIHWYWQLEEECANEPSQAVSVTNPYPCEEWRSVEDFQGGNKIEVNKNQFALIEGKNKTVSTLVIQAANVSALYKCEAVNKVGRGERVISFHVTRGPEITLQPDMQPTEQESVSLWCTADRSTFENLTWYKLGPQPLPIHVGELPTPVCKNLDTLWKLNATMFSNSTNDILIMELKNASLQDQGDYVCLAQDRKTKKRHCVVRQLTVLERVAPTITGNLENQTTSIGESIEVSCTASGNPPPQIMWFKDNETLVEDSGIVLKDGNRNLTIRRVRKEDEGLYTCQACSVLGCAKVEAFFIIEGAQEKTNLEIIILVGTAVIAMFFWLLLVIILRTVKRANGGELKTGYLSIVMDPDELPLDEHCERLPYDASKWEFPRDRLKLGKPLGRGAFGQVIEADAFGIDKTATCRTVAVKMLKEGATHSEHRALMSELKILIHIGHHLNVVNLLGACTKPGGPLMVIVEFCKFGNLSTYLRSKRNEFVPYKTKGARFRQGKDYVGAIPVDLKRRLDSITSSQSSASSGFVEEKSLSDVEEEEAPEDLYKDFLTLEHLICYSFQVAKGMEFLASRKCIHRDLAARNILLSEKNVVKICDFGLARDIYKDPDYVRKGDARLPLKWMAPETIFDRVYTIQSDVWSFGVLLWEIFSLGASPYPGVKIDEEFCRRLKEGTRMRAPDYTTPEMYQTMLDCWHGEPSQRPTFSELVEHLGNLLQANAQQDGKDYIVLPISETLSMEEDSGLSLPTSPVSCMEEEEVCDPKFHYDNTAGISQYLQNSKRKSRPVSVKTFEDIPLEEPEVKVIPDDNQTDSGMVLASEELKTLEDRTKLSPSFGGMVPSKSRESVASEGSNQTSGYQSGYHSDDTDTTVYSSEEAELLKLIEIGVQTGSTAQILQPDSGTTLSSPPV
T3 sequence (P36888 27-993): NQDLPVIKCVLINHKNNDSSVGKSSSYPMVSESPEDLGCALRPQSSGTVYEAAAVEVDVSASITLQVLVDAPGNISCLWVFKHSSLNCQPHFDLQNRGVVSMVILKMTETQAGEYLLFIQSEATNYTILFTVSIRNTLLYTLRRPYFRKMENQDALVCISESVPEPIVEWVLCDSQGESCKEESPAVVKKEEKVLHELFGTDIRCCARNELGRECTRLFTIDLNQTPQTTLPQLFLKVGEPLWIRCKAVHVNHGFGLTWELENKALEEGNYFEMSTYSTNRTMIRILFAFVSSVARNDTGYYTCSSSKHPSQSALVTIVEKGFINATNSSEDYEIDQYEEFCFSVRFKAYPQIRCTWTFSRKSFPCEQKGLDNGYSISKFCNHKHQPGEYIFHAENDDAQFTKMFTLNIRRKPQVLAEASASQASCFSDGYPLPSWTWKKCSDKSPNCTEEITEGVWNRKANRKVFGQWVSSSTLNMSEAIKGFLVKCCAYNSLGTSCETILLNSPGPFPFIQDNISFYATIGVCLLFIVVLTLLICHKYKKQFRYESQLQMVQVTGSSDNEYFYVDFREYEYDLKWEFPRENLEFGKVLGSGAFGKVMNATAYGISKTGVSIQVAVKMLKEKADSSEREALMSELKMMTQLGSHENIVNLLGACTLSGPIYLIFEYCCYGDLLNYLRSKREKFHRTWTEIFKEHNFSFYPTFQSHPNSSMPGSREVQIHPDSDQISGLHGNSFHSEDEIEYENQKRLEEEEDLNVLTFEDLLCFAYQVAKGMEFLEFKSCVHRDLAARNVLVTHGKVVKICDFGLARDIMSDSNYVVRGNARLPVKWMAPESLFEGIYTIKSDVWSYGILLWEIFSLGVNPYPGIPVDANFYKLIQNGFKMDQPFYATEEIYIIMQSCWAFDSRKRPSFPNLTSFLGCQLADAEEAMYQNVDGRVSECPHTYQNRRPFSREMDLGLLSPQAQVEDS
T5 sequence (O60674 whole entry): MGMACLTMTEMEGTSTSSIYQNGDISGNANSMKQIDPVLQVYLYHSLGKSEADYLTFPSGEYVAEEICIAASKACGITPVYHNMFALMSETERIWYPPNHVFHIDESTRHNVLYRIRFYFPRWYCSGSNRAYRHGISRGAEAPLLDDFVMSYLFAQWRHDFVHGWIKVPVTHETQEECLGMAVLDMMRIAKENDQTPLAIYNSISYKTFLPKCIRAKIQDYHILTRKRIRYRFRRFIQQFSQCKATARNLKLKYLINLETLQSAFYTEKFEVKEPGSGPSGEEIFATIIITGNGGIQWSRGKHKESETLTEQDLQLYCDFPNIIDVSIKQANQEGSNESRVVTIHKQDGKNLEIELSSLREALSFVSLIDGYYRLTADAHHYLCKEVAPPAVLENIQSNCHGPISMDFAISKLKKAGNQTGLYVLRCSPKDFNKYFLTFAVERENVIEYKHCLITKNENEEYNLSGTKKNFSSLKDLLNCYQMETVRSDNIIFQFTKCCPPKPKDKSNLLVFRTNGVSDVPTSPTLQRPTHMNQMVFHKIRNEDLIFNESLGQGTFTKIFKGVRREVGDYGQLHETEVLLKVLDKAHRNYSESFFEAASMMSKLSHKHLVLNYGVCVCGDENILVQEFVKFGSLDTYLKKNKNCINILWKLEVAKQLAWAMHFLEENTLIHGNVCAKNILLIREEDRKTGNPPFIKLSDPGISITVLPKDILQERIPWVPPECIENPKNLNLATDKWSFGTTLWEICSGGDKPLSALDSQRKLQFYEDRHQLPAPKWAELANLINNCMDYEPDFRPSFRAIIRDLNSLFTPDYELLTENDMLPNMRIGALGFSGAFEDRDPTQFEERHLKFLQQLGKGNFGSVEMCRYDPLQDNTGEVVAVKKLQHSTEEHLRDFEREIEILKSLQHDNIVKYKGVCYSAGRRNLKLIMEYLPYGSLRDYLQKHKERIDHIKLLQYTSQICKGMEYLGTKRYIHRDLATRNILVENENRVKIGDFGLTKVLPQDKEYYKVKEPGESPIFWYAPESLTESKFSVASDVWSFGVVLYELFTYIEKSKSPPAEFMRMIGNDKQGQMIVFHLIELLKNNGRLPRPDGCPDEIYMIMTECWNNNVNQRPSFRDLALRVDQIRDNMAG
T1 sequence (P23443 whole entry): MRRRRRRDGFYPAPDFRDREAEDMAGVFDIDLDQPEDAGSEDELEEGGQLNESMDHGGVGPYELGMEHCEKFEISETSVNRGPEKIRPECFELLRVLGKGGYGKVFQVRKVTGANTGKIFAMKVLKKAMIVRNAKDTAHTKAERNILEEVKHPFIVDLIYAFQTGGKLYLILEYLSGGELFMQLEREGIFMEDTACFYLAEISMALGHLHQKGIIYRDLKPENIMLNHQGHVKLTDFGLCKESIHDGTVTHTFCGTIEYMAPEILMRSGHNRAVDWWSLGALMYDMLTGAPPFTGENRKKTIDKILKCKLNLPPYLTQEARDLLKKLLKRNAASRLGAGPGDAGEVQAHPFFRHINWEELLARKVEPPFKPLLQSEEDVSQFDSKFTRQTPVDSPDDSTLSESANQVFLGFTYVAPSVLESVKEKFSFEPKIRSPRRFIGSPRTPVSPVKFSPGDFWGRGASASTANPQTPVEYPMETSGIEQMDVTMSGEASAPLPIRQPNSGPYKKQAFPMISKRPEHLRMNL
T4 sequence (P49841 whole entry): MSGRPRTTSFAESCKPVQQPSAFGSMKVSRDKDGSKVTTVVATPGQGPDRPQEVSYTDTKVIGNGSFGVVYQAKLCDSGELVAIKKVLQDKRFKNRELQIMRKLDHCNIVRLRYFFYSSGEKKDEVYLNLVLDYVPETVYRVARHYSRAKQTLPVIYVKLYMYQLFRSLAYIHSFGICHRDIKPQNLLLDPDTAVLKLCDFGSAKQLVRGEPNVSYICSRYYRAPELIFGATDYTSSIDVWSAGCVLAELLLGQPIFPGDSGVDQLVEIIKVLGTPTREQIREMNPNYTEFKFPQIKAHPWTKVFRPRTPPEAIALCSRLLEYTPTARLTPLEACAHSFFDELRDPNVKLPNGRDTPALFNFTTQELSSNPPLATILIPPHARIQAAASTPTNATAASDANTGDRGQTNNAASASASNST

SMILES	Basal_Viability ATP SNU-C1 IC50/EC50 (SNU-C1) [nM]	Basal_Viability ATP HCT116 IC50/EC50 (HCT116) [nM]	WntCondMedia_bCatenin C2C12 IC50/EC50 [1] [nM]	VEGF_ADSC\ECFC Angio Hoechst NucArea IC50/EC50 [2] [nM]	hp70S6K1 LANCE IC50/EC50 (hp70S6K1 (RPS6KB1)) [nM]	GSK3b inh pretreated_Viability ATP HCT116 IC50/EC50 [3] [nM]	hKDR LANCE IC50/EC50 (hKDR) [nM]	WntCondMedia_Alk Phos C2C12 IC50/EC50 [4] [nM]	Basal_Viability ATP HT-29 IC50/EC50 (HT-29) [nM]	VEGF_ADSC\ECFC Angio CD31 TubeArea IC50/EC50 [5] [nM]	Basal_Viability ATP RKO IC50/EC50 (RKO) [nM]	hFLT3 LANCE IC50/EC50 (hFLT3) [nM]	hGSK3b LANCE IC50/EC50 (hGSK3b) [nM]	Hela CellCycMod PI 2N IC50/EC50 (HeLa cells; 2N) [nM]	Hela CellCycMod PI 4N IC50/EC50 (HeLa cells; 4N) [nM]	Hela CellCycMod PI MI IC50/EC50 (HeLa cells; MI) [nM]	Hela CellCycMod PI Cell Number IC50/EC50 (HeLa cells) [nM]	hJAK2 LANCE IC50/EC50 (hJAK2) [nM]	Hela CellCycMod PI S Phase IC50/EC50 (HeLa cells) [nM]	further results
CC(C)C[C@H](NC(=O)[C@H](CCc1ccccc1)NC(=O)CN1CCOCC1)C(=O)N[C@@H](Cc1ccccc1)C(=O)N[C@@H](CC(C)C)C(=O)[C@@]1(C)CO1 [NCGC00249613-02]	1.47	5.58	29.2	285.2	> 20000	1.73	> 20000	15.2	3.18	20.4	3.94	> 20000	> 20000	> 10000	> 10000	> 10000	9.9	> 20000		Basal_Viability ATP DLD-1 IC50/EC50 (DLD-1): 6.96 nM
Cc1nc(N)nc(N)c1-c1ccc(Cl)c(Cl)c1 [NCGC00253626-01]		413.4	50.4		> 20000	58.88	> 20000	29.9				> 20000	> 20000	> 10000	> 10000	> 10000	1006.8	> 20000	> 10000	Basal_Viability ATP SNU-C1 IC50/EC50 (SNU-C1; basal): 2165 nM; Basal_Viability ATP HT-29 IC50/EC50 (HT-29; basal): 931.6 nM; Basal_Viability ATP SW480 IC50/EC50 (SW480; assay number 24): 512 nM; Basal_Viability ATP RKO IC50/EC50 (RKO; basal): 117.1 nM; Basal_Viability ATP Colo 320 IC50/EC50 (Colo320; basal): 2030 nM; Basal_Viability ATP DLD-1 IC50/EC50 (DLD-1; basal): 633.7 nM
COC(=O)Nc1nc2ccc(C(=O)C3CC3)cc2[nH]1 [NCGC00262953-01]																				IC50/EC50, Basal_Viability ATP SNU-C1 (assay number 30) (SNU-C1; basal): > 20000 nM; IC50/EC50, Basal_Viability ATP HCT116 (assay number 25) (HCT116): 173.5 nM; IC50/EC50, WntCondMedia_bCatenin C2C12 (assay number 5) [1]: 348.6 nM; IC50/EC50, VEGF_ADSC\ECFC Angio Hoechst NucArea (assay number 3) [2]: > 10000 nM; IC50/EC50, hp70S6K1 LANCE (assay number 31) (hp70S6K1 (RPS6KB1)): > 20000 nM; IC50/EC50, hKDR LANCE (assay number 32) (hKDR): 15140 nM; IC50/EC50, WntCondMedia_Alk Phos C2C12 (assay number 6) [4]: 683.6 nM; IC50/EC50, Basal_Viability ATP HT-29 (assay number 28) (HT-29; basal): 1682.3 nM; IC50/EC50, VEGF_ADSC\ECFC Angio CD31 TubeArea (assay number 2) [5]: 1191.4 nM; IC50/EC50, Basal_Viability ATP SW480 (assay number 24) (SW480): > 20000 nM; IC50/EC50, Basal_Viability ATP RKO (assay number 29) (RKO; basal): 162.2 nM; IC50/EC50, hFLT3 LANCE (assay number 35) (hFLT3): 6140 nM; IC50/EC50, hGSK3b LANCE (assay number 34) (hGSK3b): 14940 nM; IC50/EC50, Hela CellCycMod PI 2N (assay number 14) (HeLa cells; 2N): 417.3 nM; IC50/EC50, Hela CellCycMod PI 4N (assay number 16) (HeLa cells; 4N): 416.4 nM; IC50/EC50, Hela CellCycMod PI Cell Number (assay number 18) (HeLa cells; Cell Number): 296.9 nM; IC50/EC50, Hela CellCycMod PI MI (assay number 17) (HeLa cells; MI): 402.4 nM; IC50/EC50, Hela CellCycMod PI S Phase (assay number 15) (HeLa cells; S Phase): > 10000 nM; IC50/EC50, Basal_Viability ATP Colo 320 (assay number 27) (Colo320; basal): 155.6 nM; IC50/EC50, hJAK2 LANCE (assay number 33) (hJAK2): > 20000 nM
CC[C@]1(O)C[C@@H]2CN(CCc3c([nH]c4ccccc34)[C@@](C(=O)OC)(c3cc4c(cc3OC)N(C)[C@H]3[C@@](O)(C(=O)OC)[C@H](OC(C)=O)[C@]5(CC)C=CCN6CC[C@]43[C@@H]65)C2)C1.O=S(=O)(O)O [NCGC00263548-01]	> 20000	1	5.8	> 10000	> 20000	1	> 20000	8.9	1	2.3	1	> 20000	> 20000	3.3	3.2	3.2	2.6	> 20000	> 10000	Basal_Viability ATP Colo 320 IC50/EC50 (Colo320): 1 nM

Reference: paper PMC4503722, “Novel Phenotypic Outcomes Identified for a Public Collection of Approved Drugs from a Publicly Accessible Panel of Assays” (PLoS ONE, 2015)
